Drawing on patent US10377770B2 (Novartis AG, priority 2015, dated 2019), this text covers IC50 for 20 compounds.

This assay addresses C-Raf FL (full length CRAF with Y340E and Y341E activating mutations, co-expressed with h14-3-3 zeta) (Homo sapiens (Human), UniProt P04049, Y340E/Y341E). Nature of the assay: In vitro Raf activity determination, AlphaScreen p-MEK readout, c-Raf (C-Raf FL). Format: biochemical. As to conditions: c-Raf approximately 4 nM, ATP 1 μM, pre-incubation 60 minutes, reaction 1 hour. The source says:
Sf9 cells co-expressing both proteins were lysed and subjected to immobilized nickel chromatography and eluted with Imidazole. A second column (StrepII binding column) was used and eluted with desthiobiotin. Protein Tags were removed using Prescission enzyme and the protein was further purified using a flowthrough step to remove tags.
C-Raf TR refers to a truncated C-Raf protein, a Δ1-324 deletion mutant. C-Raf FL refers to the full-length C-Raf protein.
Full length MEK1 with an inactivating K97R ATP binding site mutation is utilized as a RAF substrate. The MEK1 cDNA was subcloned with an N-terminal (his)6 tag into a vector for E. Coli expression. The MEK1 substrate was purified from E. Coli lysate by nickel affinity chromatography followed by anion exchange. The final MEK1 preparation was biotinylated (Pierce EZ-Link Sulfo-NHS-LC-Biotin) and concentrated.
Assay Materials: Assay buffer is 50 mM Tris, pH 7.5, 15 mM MgCl2, 0.01% Bovine Serum Albumin (BSA) and 1 mM dithiothreitol (DTT); Stop buffer is 60 mM ethylenediaminetetraacetic acid (EDTA) and 0.01% Tween® 20; b-Raf (V600E), active; biotinylated Mek, kinase dead; Alpha Screen detection kit (available from PerkinElmer™, #6760617R); Anti phospho-MEK1/2 (available from Cell Signaling Technology, Inc. #9121); 384 well low volume assay plates (White Greiner® plates).
Assay conditions: b-Raf (V600E) approximately 4 pM; c-Raf approximately 4 nM; biotinylated Mek, kinase dead approximately 10 nM; ATP 10 μM for BRAF (V600E) and 1 μM for CRAF; Pre-incubation time with compounds 60 minutes at room temperature; Reaction time 1 or 3 hours at room temperature.
Assay protocol: Raf and biotinylated Mek (kinase dead) were combined at 2× final concentrations in assay buffer (50 mM Tris, pH 7.5, 15 mM MgCl2, 0.01% BSA and 1 mM DTT) and dispensed […] per well in assay plates (Greiner white 384 well assay plates #781207) containing […] of 40× of a Raf kinase inhibitor test compound diluted in 100% DMSO. The plate was incubated for 60 minutes at room temperature. The Raf kinase activity reaction was started by the addition of […] per well of 2×ATP diluted in assay buffer. After 3 hours (b-Raf(V600E)) or 1 hour (c-Raf). The reactions were stopped and the phosphorylated product was measured using a rabbit anti-p-MEK (Cell Signaling, #9121) antibody and the Alpha Screen IgG (ProteinA) detection Kit (PerkinElmer #6760617R), by the addition of […] to the well of a mixture of the antibody (1:2000 dilution) and detection beads (1:2000 dilution of both beads) in Stop/bead buffer (25 mM EDTA, 50 mM Tris, pH 7.5, 0.01% Tween20). The additions were carried out under dark conditions to protect the detection beads from light. A lid was placed on top of the plate and incubated for 1 hour at room temperature, after which the luminescence was read on a PerkinElmer Envision instrument.
(In general: In Alpha technology, singlet oxygen from a donor bead excites a nearby acceptor bead.)

Sequence of C-Raf FL (full length CRAF with Y340E and Y341E activating mutations, co-expressed with h14-3-3 zeta) (P04049 whole entry Y340E/Y341E): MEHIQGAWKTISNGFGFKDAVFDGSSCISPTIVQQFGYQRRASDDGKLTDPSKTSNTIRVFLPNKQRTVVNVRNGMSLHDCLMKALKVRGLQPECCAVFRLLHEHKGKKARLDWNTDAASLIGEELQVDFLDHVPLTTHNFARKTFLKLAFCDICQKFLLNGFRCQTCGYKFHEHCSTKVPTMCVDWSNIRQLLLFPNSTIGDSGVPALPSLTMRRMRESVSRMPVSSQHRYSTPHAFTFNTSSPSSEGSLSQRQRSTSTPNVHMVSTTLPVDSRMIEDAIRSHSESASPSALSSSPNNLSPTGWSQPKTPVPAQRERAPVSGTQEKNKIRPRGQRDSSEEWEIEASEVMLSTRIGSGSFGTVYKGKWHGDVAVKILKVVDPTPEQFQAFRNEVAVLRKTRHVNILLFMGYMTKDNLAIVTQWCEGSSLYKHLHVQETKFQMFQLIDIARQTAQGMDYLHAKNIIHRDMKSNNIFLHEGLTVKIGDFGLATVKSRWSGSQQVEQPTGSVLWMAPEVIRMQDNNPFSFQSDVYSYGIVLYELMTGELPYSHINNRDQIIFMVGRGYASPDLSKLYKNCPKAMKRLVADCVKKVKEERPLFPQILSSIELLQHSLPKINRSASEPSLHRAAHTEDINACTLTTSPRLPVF
Sequence of C-Raf FL (full length CRAF with Y340E and Y341E activating mutations, co-expressed with h14-3-3 zeta) (P63104 whole entry partner): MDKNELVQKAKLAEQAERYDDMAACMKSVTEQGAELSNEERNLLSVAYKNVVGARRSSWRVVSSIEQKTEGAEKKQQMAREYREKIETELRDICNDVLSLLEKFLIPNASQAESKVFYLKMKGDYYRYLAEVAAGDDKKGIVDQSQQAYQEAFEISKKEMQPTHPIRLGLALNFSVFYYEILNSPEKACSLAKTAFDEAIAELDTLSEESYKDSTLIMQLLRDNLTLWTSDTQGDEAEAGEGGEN

Take `Cc1ccc(NC(=O)c2ccnc(C(C)(F)F)c2)cc1-c1cnc2c(c1)N1CCOC[C@H]1C[C@@]2(C)O` (racemic) [Example 41, (rac)-(trans)-2-(1,1-difluoroethyl)-N-(3-(6-hydroxy-6-methyl-1,2,4,4a,5,6-hexahydro-[1,4]oxazino[4,3-a][1,5]naphthyridin-9-yl)-4-methylphenyl)isonicotinamide]: the IC50 (commonly the concentration at which inhibition is half-maximal) was 0.0099 nM.

`Cc1ccc(NC(=O)c2ccnc(C(C)(F)F)c2)cc1-c1cnc2c(c1)N1CCOC[C@H]1C[C@]2(C)O` (racemic) [Example 42, (rac)-(cis)-2-(1,1-difluoroethyl)-N-(3-(6-hydroxy-6-methyl-1,2,4,4a,5,6-hexahydro-[1,4]oxazino[4,3-a][1,5]naphthyridin-9-yl)-4-methylphenyl)isonicotinamide]: the concentration for half-maximal inhibition (IC50) stood at 0.015 nM.

`Cc1ncc(NC(=O)c2cccc(C(F)(F)F)c2)cc1-c1cnc2c(c1)N1CCOC[C@H]1C[C@@]2(C)O` (racemic) [Example 43, (rac)-(trans)-N-(5-(6-hydroxy-6-methyl-1,2,4,4a,5,6-hexahydro-[1,4]oxazino[4,3-a][1,5]naphthyridin-9-yl)-6-methylpyridin-3-yl)-3-(trifluoromethyl)benzamide] returned a half-inhibitory concentration (IC50) of 0.0082 nM.

Compound `Cc1ncc(NC(=O)c2cccc(C(F)(F)F)c2)cc1-c1cnc2c(c1)N1CCOC[C@H]1C[C@]2(C)O` (racemic) [Example 44, (rac)-(cis)-N-(5-(6-hydroxy-6-methyl-1,2,4,4a,5,6-hexahydro-[1,4]oxazino[4,3-a][1,5]naphthyridin-9-yl)-6-methylpyridin-3-yl)-3-(trifluoromethyl)benzamide] showed an IC50 of 0.037 nM.

`Cc1ccc(NC(=O)c2ccnc(C(F)(F)F)c2)cc1-c1ccc2c(c1)N1CCOCC1c1cn(C)nc1-2` (racemic) [Example 45, (rac)-N-(4-methyl-3-(2-methyl-3b,4,6,7-tetrahydro-2H-[1,4]oxazino[4,3-a]pyrazolo[4,3-c]quinolin-10-yl)phenyl)-2-(trifluoromethyl)isonicotinamide] returned an IC50 of 0.17 nM.

`Cc1ccc(NC(=O)c2ccnc(C(C)(F)F)c2)cc1-c1cc2c(nn1)[C@H](O)C[C@@H]1COCCN21` (racemic) [Example 46, (rac)(trans)-2-(1,1-difluoroethyl)-N-(3-(5-hydroxy-5,6,6a,7,9,10-hexahydropyridazino[3′,4′:5,6]pyrido[2,1-c][1,4]oxazin-2-yl)-4-methylphenyl)isonicotinamide] showed an IC50 of 0.014 nM.

The compound `Cc1ncc(NC(=O)c2cccc(C(F)(F)F)c2)cc1-c1cc2c(nn1)[C@H](O)C[C@@H]1COCCN21` (racemic) [Example 47, (rac)-(trans)-N-(5-(5-hydroxy-5,6,6a,7,9,10-hexahydropyridazino[3′,4′:5,6]pyrido[2,1-c][1,4]oxazin-2-yl)-6-methylpyridin-3-yl)-3-(trifluoromethyl)benzamide] displayed an IC50 of 0.073 nM.

On to `Cc1ccc(NC(=O)c2ccnc(C(F)(F)F)c2)cc1-c1cc2c(nn1)[C@H](O)C[C@@H]1COCCN21` (racemic) [Example 48, (rac)-(trans)-N-(3-(5-hydroxy-5,6,6a,7,9,10-hexahydropyridazino[3′,4′:5,6]pyrido[2,1-c][1,4]oxazin-2-yl)-4-methylphenyl)-2-(trifluoromethyl)isonicotinamide], for which half-maximal inhibition (IC50) was put at 0.049 nM.

Regarding `Cc1ccc(NC(=O)c2ccnc(C(F)(F)F)c2)cc1-c1ccc2c(c1)N1CCOCC1C(CO)(CO)C2` (racemic) [Example 49, (rac)-N-(3-(5,5-bis(hydroxymethyl)-1,2,4,4a,5,6-hexahydro-[1,4]oxazino[4,3-a]quinolin-9-yl)-4-methylphenyl)-2-(trifluoromethyl)isonicotinamide], it took 0.021 nM to reach half-maximal inhibition (IC50).

In turn, `Cc1ccc(NC(=O)c2ccnc(C(C)(F)F)c2)cc1-c1ccc2c(c1)N1CCOCC1C(CO)(CO)C2` (racemic) [Example 50, (rac)-N-(3-(5,5-bis(hydroxymethyl)-1,2,4,4a,5,6-hexahydro-[1,4]oxazino[4,3-a]quinolin-9-yl)-4-methylphenyl)-2-(1,1-difluoroethyl)isonicotinamide] displayed an IC50 of 0.013 nM.

`Cc1ncc(NC(=O)c2cccc(C(F)(F)F)c2)cc1-c1ccc2c(c1)N1CCOCC1C(CO)(CO)C2` (racemic) [Example 51, (rac)-N-(5-(5,5-bis(hydroxymethyl)-1,2,4,4a,5,6-hexahydro-[1,4]oxazino[4,3-a]quinolin-9-yl)-6-methylpyridin-3-yl)-3-(trifluoromethyl)benzamide] registered a 50% inhibitory concentration (IC50) of 0.036 nM.

The compound `Cc1ccc(NC(=O)c2ccnc(C(F)(F)F)c2)cc1-c1ccc2c(c1)N1CCOCC1C1(COC1)C2` (racemic) [Example 54, (rac)-N-(4-methyl-3-(2,4,4a,6-tetrahydro-1H-spiro[[1,4]oxazino[4,3-a]quinoline-5,3′-oxetan]-9-yl)phenyl)-2-(trifluoromethyl)isonicotinamide] had an IC50 of 0.013 nM.

Turning to `Cc1ccc(NC(=O)c2ccnc(C(C)(F)F)c2)cc1-c1ccc2c(c1)N1CCOCC1C1(COC1)C2` (racemic) [Example 55, (rac)-2-(1,1-difluoroethyl)-N-(4-methyl-3-(2,4,4a,6-tetrahydro-1H-spiro[[1,4]oxazino[4,3-a]quinoline-5,3′-oxetan]-9-yl)phenyl)isonicotinamide], the concentration for half-maximal inhibition (IC50) was found to be 0.022 nM.

The compound `Cc1ncc(NC(=O)c2cccc(C(F)(F)F)c2)cc1-c1ccc2c(c1)N1CCOCC1C1(COC1)C2` (racemic) [Example 56, (rac)-N-(6-methyl-5-(2,4,4a,6-tetrahydro-1H-spiro[[1,4]oxazino[4,3-a]quinoline-5,3′-oxetan]-9-yl)pyridin-3-yl)-3-(trifluoromethyl)benzamide] yielded an IC50 of 0.071 nM.

`Cc1ccc(NC(=O)c2ccnc(C(F)(F)F)c2)cc1-c1ccc2c(c1)N1CCOCC1C(CO)C2` (racemic) [Example 59, (rac)-N-(3-(5-(hydroxymethyl)-1,2,4,4a,5,6-hexahydro-[1,4]oxazino[4,3-a]quinolin-9-yl)-4-methylphenyl)-2-(trifluoromethyl)isonicotinamide] showed an IC50 of 0.0089 nM.

Compound `Cc1ccc(NC(=O)c2ccnc(C(C)(F)F)c2)cc1-c1ccc2c(c1)N1CCOCC1C(CO)C2` (racemic) [Example 60, (rac)-2-(1,1-difluoroethyl)-N-(3-(5-(hydroxymethyl)-1,2,4,4a,5,6-hexahydro-[1,4]oxazino[4,3-a]quinolin-9-yl)-4-methylphenyl)isonicotinamide] yielded an IC50 of 0.019 nM.

As for `Cc1ncc(NC(=O)c2cccc(C(F)(F)F)c2)cc1-c1ccc2c(c1)N1CCOCC1C(CO)C2` (racemic) [Example 61, (rac)-N-(5-(5-(hydroxymethyl)-1,2,4,4a,5,6-hexahydro-[1,4]oxazino[4,3-a]quinolin-9-yl)-6-methylpyridin-3-yl)-3-(trifluoromethyl)benzamide], the IC50 came out at 0.033 nM.

Consider `CNC(=O)C1Cc2ccc(-c3cc(NC(=O)c4ccnc(C(F)(F)F)c4)ccc3C)cc2N2CCOCC12` (racemic) [Example 66, (rac)-N-methyl-9-(2-methyl-5-(2-(trifluoromethyl)isonicotinamido)phenyl)-1,2,4,4a,5,6-hexahydro-[1,4]oxazino[4,3-a]quinoline-5-carboxamide], for which the IC50 is 0.11 nM.

Take `CNC(=O)C1Cc2ccc(-c3cc(NC(=O)c4ccnc(C(C)(F)F)c4)ccc3C)cc2N2CCOCC12` (racemic) [Example 67, (rac)-9-(5-(2-(1,1-difluoroethyl)isonicotinamido)-2-methylphenyl)-N-methyl-1,2,4,4a,5,6-hexahydro-[1,4]oxazino[4,3-a]quinoline-5-carboxamide]: the half-maximal inhibitory concentration (IC50) came out at 0.13 nM.

`CNC(=O)C1Cc2ccc(-c3cc(NC(=O)c4cccc(C(F)(F)F)c4)cnc3C)cc2N2CCOCC12` (racemic) [Example 68, (rac)-N-methyl-9-(2-methyl-5-(3-(trifluoromethyl)benzamido)pyridin-3-yl)-1,2,4,4a,5,6-hexahydro-[1,4]oxazino[4,3-a]quinoline-5-carboxamide] registered an IC50 of 0.34 nM.
